Data taken from patent publication US8791139B2, “Anthranilic diamide derivatives” (Bayer Cropscience AG, priority 2010, dated 2014).
Like-named read-outs stand apart in the source and are kept apart here.

Experiments:
[1] = logP by HPLC on reversed-phase columns (C18), EEC Directive 79/831 Annex V.A8; assay type: physicochemical
Description: The logP values reported in the table above and in the Preparation Examples were determined in accordance with EEC Directive 79/831 Annex V.A8 by HPLC (High Performance Liquid Chromatography) on reversed-phase columns (C18), with the following methods:
The LC-MS determination in the acidic range is carried out at pH 2.7 using the mobile phases 0.1% aqueous formic acid and acetonitrile (contains 0.1% formic acid), linear gradient from 10% acetonitrile to 95% acetonitrile
Calibration was carried out using unbranched alkan-2-ones (having from 3 to 16 carbon atoms) with known logP values (the logP values were determined by the retention times using linear interpolation between two successive alkanones).

[2] = system: caterpillars of the armyworm (Spodoptera frugiperda); assay: Spodoptera frugiperda test (SPODFR spray treatment); assay type: in vivo; details: 168 h; for pest or weed control at 100 g/ha: read-out: activity (caterpillars killed)
Description: After 7 days, the effect in % is determined.

[3] = system: larvae of the mustard beetle (Phaedon cochleariae); assay: Phaedon test (PHAECO spray treatment); details: 168 h; for pest or weed control at 100 g/ha: read-out: activity (beetle larvae killed)
[4] = reversed-phase HPLC column (C18), pH 2.7, HPLC reversed-phase C18, acidic range pH 2.7, 0.1% aqueous formic acid/acetonitrile, table of compounds of formula (I), read-out: log P
[5] = application rate 100 g/ha, after 7 days
[6] = reversed-phase HPLC column (C18), pH 2.7, HPLC reversed-phase C18, acidic range pH 2.7, Preparation Examples (intermediates), read-out: logP

chromatographic logP [1, 4]	SMILES	chromatographic logP ([1]; pH 2.7, log P)	also measured
	Cc1cc(C#N)cc(C(=O)NC(C)(C)C)c1NC(=O)c1cc(C(=O)c2nc(C(F)(F)F)cs2)nn1-c1ncccc1Cl [Example 14]	3.57	pest or weed control at 100 g/ha [2]: 100%; pest or weed control at 100 g/ha [3]: 100%
	Cc1cc(C#N)cc(C(=O)NC(C)C)c1NC(=O)c1cc(Oc2ccc(C(F)(F)F)cn2)nn1-c1ncccc1Cl [Example 76]	3.4	pest or weed control at 100 g/ha [2]: 100%; pest or weed control at 100 g/ha [3]: 100%
	Cc1cc(Br)cc(C(=O)NC(C)C)c1NC(=O)c1cc(C(=O)Nc2ccc(C(F)(F)F)cc2)nn1-c1ncccc1Cl [Example 3]	4.02	pest or weed control at 100 g/ha [3]: 100%
4.37	Cc1cc(Cl)cc(C(=O)NC(C)C)c1NC(=O)c1cc(CN(C)S(=O)(=O)Cc2cc(C(F)(F)F)cc(C(F)(F)F)c2)nn1-c1ncccc1Cl [Example 56]		pest or weed control at 100 g/ha [2, 5]: 100%
	Cc1cc(Cl)cc(C(=O)NC(C)C)c1NC(=O)c1cc(C(=O)Nc2ccc(C(F)(F)F)cc2)nn1-c1ncccc1Cl [Example 4]	3.96	pest or weed control at 100 g/ha [2]: 83%
3.94	Cc1cc(Cl)cc(C(=O)NC(C)C)c1NC(=O)c1cc(CNS(=O)(=O)c2ccc(C(F)(F)F)cc2C(F)(F)F)nn1-c1ncccc1Cl [Example 42]		
4.38	Cc1cc(Cl)cc(C(=O)NC(C)C2CC2)c1NC(=O)c1cc(CNS(=O)(=O)c2cc(C(F)(F)F)cc(C(F)(F)F)c2)nn1-c1ncccc1Cl (stereo not drawn) [Example 34]		
5.29	Cc1cc(Cl)cc(C(=O)NC(C)(C)C)c1NC(=O)c1cc(N2CCN(c3cc(C(F)(F)F)cc(C(F)(F)F)c3)C2=O)nn1-c1ncccc1Cl [Example 24]		
	Cc1cc(Cl)cc(C(=O)NC(C)C)c1NC(=O)c1cc(CNS(=O)(=O)c2cccc(Cl)c2)nn1-c1ncccc1Cl [Example 43]	3.25	
3.64	Cc1cc(C#N)cc(C(=O)NC2CC2)c1NC(=O)c1cc(CN(Cc2cc(C(F)(F)F)cc(C(F)(F)F)c2)S(C)(=O)=O)nn1-c1ncccc1Cl [Example 62]		
	O=C(Cn1nnc(C(F)(F)F)n1)c1cc(C(=O)O)n(-c2ncccc2Cl)n1 [Example No. III-4, 1-(3-chloropyridin-2-yl)-3-{[5-(trifluoromethyl)-2H-tetrazol-2-yl]acetyl}-1H-pyrazole-5-carboxylic acid]		chromatographic logP [1, 6]: 2.25
	Cc1cc(C#N)cc(C(=O)NC(C)C)c1NC(=O)c1cc(Nc2ccc(C(F)(F)F)c(C(F)(F)F)c2)nn1-c1ncccc1Cl [Example 72]	3.91	
	Cc1cc(Cl)cc(C(=O)NC(C)C)c1NC(=O)c1cc(CNS(=O)(=O)c2ccccc2C(F)(F)F)nn1-c1ncccc1Cl [Example 45]	3.26	
4.05	Cc1cc(Cl)cc(C(=O)NC2CC2)c1NC(=O)c1cc(CN(Cc2cc(C(F)(F)F)cc(C(F)(F)F)c2)S(C)(=O)=O)nn1-c1ncccc1Cl [Example 59]		pest or weed control at 100 g/ha [2, 5]: 100%
	CNC(=O)c1cc(C#N)cc(C)c1NC(=O)c1cc(Nc2cc(C(F)(F)F)ccn2)nn1-c1ncccc1Cl [Example 70]	2.76	
	Cc1cc(Cl)cc(C(=O)NC(C)C)c1NC(=O)c1cc(CNS(=O)(=O)c2ccc(Cl)cc2)nn1-c1ncccc1Cl [Example 47]	3.25	
	Cc1cc(Cl)cc(C(N)=O)c1NC(=O)c1cc(C(=O)C(=O)c2ccc(Cl)cc2Cl)nn1-c1ncccc1Cl [Example 31]	3.51	
	Cc1cc(Cl)cc(C(=O)NC(C)C)c1NC(=O)c1cc(CNS(=O)(=O)c2ccccc2)nn1-c1ncccc1Cl [Example 44]	2.84	
	COC(=O)c1cc(N)nn1-c1ncccc1Cl [Example No. XIX, Methyl 3-amino-1-(3-chloropyridin-2-yl)-1H-pyrazole-5-carboxylate]		chromatographic logP [1, 6]: 1.09
	CNC(=O)c1cc(Cl)cc(C)c1NC(=O)c1cc(C2=NOC(c3cc(Cl)cc(Cl)c3)(C(F)(F)F)C2)nn1-c1ncccc1Cl (stereo not drawn) [Example 1]		pest or weed control at 100 g/ha [2]: 100%; pest or weed control at 100 g/ha [3]: 83%
	CNC(=O)c1cc(C#N)cc(C)c1NC(=O)c1cc(C#Cc2ccc(OC(F)(F)F)cc2)nn1-c1ncccc1Cl [Example 13]	3.88	pest or weed control at 100 g/ha [3]: 100%
4.62	Cc1cc(Cl)cc(C(=O)NC(C)C)c1NC(=O)c1cc(C(=O)Nc2cc(C(F)(F)F)cc(C(F)(F)F)c2)nn1-c1ncccc1Cl [Example 7]		
	Cc1cc(Cl)cc(C(=O)NC(C)C)c1NC(=O)c1cc(CNS(=O)(=O)c2ccc(C(F)(F)F)cc2)nn1-c1ncccc1Cl [Example 46]	3.47	pest or weed control at 100 g/ha [2]: 83%

chromatographic logP [1, 4]	SMILES	chromatographic logP ([1]; pH 2.7, log P)	also measured
3.91	Cc1cc(C#N)cc(C(=O)NC(C)C)c1NC(=O)c1cc(CN(Cc2cc(C(F)(F)F)cc(C(F)(F)F)c2)S(C)(=O)=O)nn1-c1ncccc1Cl [Example 60]		
	COC(=O)c1cc(C(=O)Nc2ccc(C(F)(F)F)cc2)nn1-c1ncccc1Cl [Example No. IX-e, methyl 1-(3-chloropyridin-2-yl)-3-{[4-(trifluoromethyl)phenyl]carbamoyl}-1H-pyrazole-5-carboxylate]		chromatographic logP [1, 6]: 3.54
3.92	Cc1cc(Cl)cc(C(=O)NC(C)C)c1NC(=O)c1cc(CNS(=O)(=O)Cc2ccc(C(F)(F)F)cc2C(F)(F)F)nn1-c1ncccc1Cl [Example 52]		pest or weed control at 100 g/ha [2, 5]: 83%
	Cc1cc(Cl)cc(C(=O)NC(C)C)c1NC(=O)c1cc(CNS(=O)(=O)Cc2ccccc2C(F)(F)F)nn1-c1ncccc1Cl [Example 49]	2.62	
	Cc1cc(Cl)cc(C(=O)NC(C)C)c1NC(=O)c1cc(CNS(=O)(=O)Cc2cccc(C(F)(F)F)c2)nn1-c1ncccc1Cl [Example 51]	3.42	
4.55	Cc1cc(C#N)cc(C(=O)NC(C)C)c1NC(=O)c1cc(N2CCN(c3cc(C(F)(F)F)cc(C(F)(F)F)c3)C2=O)nn1-c1ncccc1Cl [Example 27]		
	CNC(=O)c1cc(C#N)cc(C)c1NC(=O)c1cc(Nc2cccc(C(F)(F)F)n2)nn1-c1ncccc1Cl [Example 69]	2.89	
	O=C(Nc1ccc(C(F)(F)F)cc1)c1cc(C(=O)O)n(-c2ncccc2Cl)n1 [Example No. III-8]		logP ([1]; HPLC reversed-phase C18, acidic range pH 2.7, Preparation Examples (intermediates)): 2.67
	CNC(=O)c1cc(C#N)cc(C)c1NC(=O)c1cc(CSc2ccc(C(F)(F)F)cn2)nn1-c1ncccc1Cl [No. 1 known WO 2007/144100, reference compound]		inhibition at 100 g/ha ([2]; 100 g/ha, 7 d, comparison with prior art): 0%; inhibition at 100 g/ha ([3]; read-out: % Activity, PHAECO): 0%
	CNC(=O)c1cc(Cl)cc(C)c1NC(=O)c1cc(C(=O)Nc2ccc(C(F)(F)F)cc2)nn1-c1ncccc1Cl [Example 5]	3.46	
	CNC(=O)c1cc(Br)cc(C)c1NC(=O)c1cc(C(=O)Nc2ccc(C(F)(F)F)cc2)nn1-c1ncccc1Cl [Example 2]	3.53	
	Cc1cc(C#N)cc(C(=O)NC(C)C)c1NC(=O)c1cc(Nc2cc(C(F)(F)F)cc(C(F)(F)F)c2)nn1-c1ncccc1Cl [Example 73]		pest or weed control at 100 g/ha [2]: 100%; pest or weed control at 100 g/ha [3]: 100%
	O=C(C(=O)c1ccc(Cl)cc1Cl)c1cc(C(=O)O)n(-c2ncccc2Cl)n1 [Example No. III-2, 1-(3-chloropyridin-2-yl)-3-[(2,4-dichlorophenyl)(oxo)acetyl]-1H-pyrazole-5-carboxylic acid]		chromatographic logP [1, 6]: 2.78
3.84	Cc1cc(Cl)cc(C(=O)NC(C)C)c1NC(=O)c1cc(CNS(=O)(=O)c2cc(C(F)(F)F)ccc2C(F)(F)F)nn1-c1ncccc1Cl [Example 40]		
4.5	Cc1cc(Cl)cc(C(=O)NC(C)C)c1NC(=O)c1cc(CN(C)S(=O)(=O)c2cc(C(F)(F)F)cc(C(F)(F)F)c2)nn1-c1ncccc1Cl [Example 55]		pest or weed control at 100 g/ha [2, 5]: 100%
	COC(=O)c1cc(CN(C)S(=O)(=O)Cc2cc(C(F)(F)F)cc(C(F)(F)F)c2)nn1-c1ncccc1Cl [Example No. V, methyl 3-{[{[3,5-bis(trifluoromethyl)benzyl]sulphonyl}(methyl)amino]methyl}-1-(3-chloropyridin-2-yl)-1H-pyrazole-5-carboxylate]		chromatographic logP [1, 6]: 3.83
4.97	Cc1cc(Cl)cc(C(=O)NC(C)C)c1NC(=O)c1cc(N2CCN(c3cc(C(F)(F)F)cc(C(F)(F)F)c3)C2=O)nn1-c1ncccc1Cl [Example 26]		
	CCOC(=O)c1cc(C(=O)Cn2nnc(C(F)(F)F)n2)nn1-c1ncccc1Cl [Example No. IX, ethyl 1-(3-chloropyridin-2-yl)-3-{[5-(trifluoromethyl)-2H-tetrazol-2-yl]acetyl}-1H-pyrazole-5-carboxylate]		chromatographic logP [1, 6]: 3.5
4.84	Cc1cc(C#N)cc(C(=O)NC(C)(C)C)c1NC(=O)c1cc(N2CCN(c3cc(C(F)(F)F)cc(C(F)(F)F)c3)C2=O)nn1-c1ncccc1Cl [Example 25]		
4.08	CNC(=O)c1cc(C#N)cc(C)c1NC(=O)c1cc(N2CCN(c3cc(C(F)(F)F)cc(C(F)(F)F)c3)C2=O)nn1-c1ncccc1Cl [Example 23]		
	CNC(=O)c1cc(Cl)cc(C)c1NC(=O)c1cc(C(=O)Nc2cc(C(F)(F)F)cc(C(F)(F)F)c2)nn1-c1ncccc1Cl [Example 6]	4.16	
	Cc1cc(C#N)cc(C(=O)NC(C)(C)C)c1NC(=O)c1cc(N2CCN(Cc3ccc(Cl)nc3)C2=O)nn1-c1ncccc1Cl [Example 30]	3.02	
